Source: patent US11911386B2, “Methods of treating B-cell proliferative disorder” (BeiGene Switzerland GmbH, priority 2022, dated 2024)
Read-outs that look alike come from different tables or passages of the source.

[1] = any grade, listed as Zanubrutinib
[2] = grade ≥3, listed as Zanubrutinib
[3] = leading to treatment discontinuation

With `C=CC(=O)N1CCC([C@@H]2CCNc3c(C(N)=O)c(-c4ccc(Oc5ccccc5)cc4)nn32)CC1` [zanubrutinib, (S)-7-(1-acryloylpiperidin-4-yl)-2-(4-phenoxyphenyl)-4,5,6,7-tetrahydropyrazolo[1,5-a]pyrimidine-3-carboxamide] the “Treatment discontinuation due to adverse events” value (ITT) was 16.2%, the “Anemia AESI” value (any grade) was 50 (15.4) n (%) and the “Anemia TEAE” value (any grade) was 49 (15.1) n (%). For the same compound, the “Arthralgia TEAE” value (any grade) was 47 (14.5) n (%), the “Atrial fibrillation TEAE” value (any grade) was 15 (4.6) n (%) and the “Atrial fibrillation and flutter AESI” value (any grade) was 5.2 n (%). The “COVID-19 TEAE” value (any grade) was 23.1 n (%), the “Contusion TEAE” value (any grade) was 44 (13.6) n (%) and the “Cough TEAE” value (any grade) was 38 (11.7) n (%). For the same compound, the “Diarrhea TEAE” value (any grade) was 16.0 n (%), the “Fatigue TEAE” value (any grade) was 31 (9.6) n (%) and the “Hemorrhage AESI” value (any grade) was 137 (42.3) n (%). For the same compound, the “Hypertension AESI” value (any grade) was 23.5 n (%), the “Hypertension TEAE” value (any grade) was 21.9 n (%) and the “Infections AESI” value (any grade) was 71.3 n (%). For the same compound, the “Major hemorrhage AESI” value (any grade) was 12 (3.7) n (%), the “Muscle spasms TEAE” value (any grade) was 10 (3.1) n (%) and the “Neutropenia AESI” value (any grade) was 29.3 n (%). The “Neutropenia TEAE” value (any grade) was 22.8 n (%), the “Opportunistic infection AESI” value (any grade) was 7 (2.2%) n (%) and the “Pneumonia TEAE” value (any grade) was 34 (10.5) n (%). The “Pyrexia TEAE” value (any grade) was 27 (8.3) n (%), the “Rash TEAE” value (any grade) was 33 (10.2) n (%) and the “Secondary primary malignancies AESI” value (any grade) was 40 (12.3) n (%). For the same compound, the “Skin cancers AESI” value (any grade) was 21 (6.5) n (%), the “Thrombocytopenia AESI” value (any grade) was 42 (13.0) n (%) and the “Tumor lysis syndrome AESI” value (any grade) was 1 (0.3) n (%). For the same compound, the “Upper respiratory tract infection TEAE” value (any grade) was 21.0 n (%), the “≥1 AESI” value (any grade) was 294 (90.7) n (%) and the “≥1 TEAE” value (any grade) was 318 (98.1) n (%). For the same compound, the “Atrial fibrillation and flutter AESI” value [1] was 17 (5.2) n (%), the “COVID-19 TEAE” value [1] was 75 (23.1) n (%) and the “Diarrhea TEAE” value [1] was 52 (16.0) n (%). For the same compound, the “Hypertension AESI” value [1] was 76 (23.5) n (%), the “Hypertension TEAE” value [1] was 71 (21.9) n (%) and the “Infections AESI” value [1] was 231 (71.3) n (%). For the same compound, the “Neutropenia AESI” value [1] was 95 (29.3) n (%), the “Neutropenia TEAE” value [1] was 74 (22.8) n (%) and the “Opportunistic infection AESI” value [1] was 7 (2.2) n (%). The “Upper respiratory tract infection TEAE” value [1] was 68 (21.0) n (%), the Acute coronary syndrome (cardiac AE) was 1 (0.3) and the Acute myocardial infarction (cardiac AE) was 1 (0.3). For the same compound, the Angina pectoris (cardiac AE) was 4 (1.2), the Aortic valve incompetence (cardiac AE) was 0 and the Aortic valve stenosis (cardiac AE) was 1 (0.3). The Arrhythmia (cardiac AE) was 1 (0.3), the Arrhythmia supraventricular (cardiac AE) was 3 (0.9) and the Arteriosclerosis coronary artery (cardiac AE) was 1 (0.3). The Atrial fibrillation (cardiac AE) was 15 (4.6), the Atrial flutter (cardiac AE) was 2 (0.6) and the Atrial tachycardia (cardiac AE) was 0. The Atrioventricular block (cardiac AE) was 0, the “Atrioventricular block first degree” value (cardiac AE) was 5 (1.5) and the Bradyarrhythmia (cardiac AE) was 1 (0.3). The Bradycardia (cardiac AE) was 0, the “Bundle branch block left” value (cardiac AE) was 3 (0.9) and the “Bundle branch block right” value (cardiac AE) was 2 (0.6). For the same compound, the Cardiac arrest (cardiac AE) was 0, the Cardiac discomfort (cardiac AE) was 0 and the Cardiac disorder (cardiac AE) was 0. The Cardiac failure (cardiac AE) was 5 (1.5), the Cardiac failure acute (cardiac AE) was 0 and the Cardiac failure chronic (cardiac AE) was 0. For the same compound, the Cardiac failure congestive (cardiac AE) was 1 (0.3), the Congestive cardiomyopathy (cardiac AE) was 0 and the Coronary artery disease (cardiac AE) was 2 (0.6). For the same compound, the Coronary artery insufficiency (cardiac AE) was 1 (0.3), the Defect conduction intraventricular (cardiac AE) was 1 (0.3) and the Dilatation atrial (cardiac AE) was 1 (0.3). The Extrasystoles (cardiac AE) was 1 (0.3), the Left atrial hypertrophy (cardiac AE) was 1 (0.3) and the Left ventricular dysfunction (cardiac AE) was 1 (0.3). The Left ventricular failure (cardiac AE) was 1 (0.3), the Mitral valve incompetence (cardiac AE) was 1 (0.3) and the Myocardial fibrosis (cardiac AE) was 1 (0.3). The Myocardial infarction (cardiac AE) was 1 (0.3), the Myocardial ischemia (cardiac AE) was 3 (0.9) and the Palpitations (cardiac AE) was 9 (2.8). The Pericardial effusion (cardiac AE) was 1 (0.3), the Sinoatrial block (cardiac AE) was 1 (0.3) and the Sinus arrhythmia (cardiac AE) was 1 (0.3). For the same compound, the Sinus bradycardia (cardiac AE) was 5 (1.5), the Sinus node dysfunction (cardiac AE) was 0 and the Sinus tachycardia (cardiac AE) was 4 (1.2). The Supraventricular extrasystoles (cardiac AE) was 4 (1.2), the Supraventricular tachycardia (cardiac AE) was 2 (0.6) and the Tachycardia (cardiac AE) was 1 (0.3). The Ventricular arrhythmia (cardiac AE) was 2 (0.6), the Ventricular extrasystoles (cardiac AE) was 3 (0.9) and the Ventricular fibrillation (cardiac AE) was 0. For the same compound, the Ventricular hypokinesia (cardiac AE) was 1 (0.3), the “Anemia AESI” value (grade ≥3) was 7 (2.2) n (%) and the “Atrial fibrillation and flutter AESI” value (grade ≥3) was 2.5 n (%). For the same compound, the “Hemorrhage AESI” value (grade ≥3) was 11 (3.4) n (%), the “Hypertension AESI” value (grade ≥3) was 15.1 n (%) and the “Infections AESI” value (grade ≥3) was 26.5 n (%). The “Major hemorrhage AESI” value (grade ≥3) was 11 (3.4) n (%), the “Neutropenia AESI” value (grade ≥3) was 68 (21.0) n (%) and the “Opportunistic infection AESI” value (grade ≥3) was 5 (1.5) n (%). For the same compound, the “Secondary primary malignancies AESI” value (grade ≥3) was 22 (6.8) n (%), the “Skin cancers AESI” value (grade ≥3) was 7 (2.2) n (%) and the “Thrombocytopenia AESI” value (grade ≥3) was 11 (3.4) n (%). For the same compound, the “Tumor lysis syndrome AESI” value (grade ≥3) was 1 (0.3) n (%), the “≥1 AESI” value (grade ≥3) was 186 (57.4) n (%) and the “Atrial fibrillation and flutter AESI” value [2] was 8 (2.5) n (%). For the same compound, the “Hypertension AESI” value [2] was 49 (15.1) n (%), the “Infections AESI” value [2] was 86 (26.5) n (%) and the Anemia (grade ≥3 TEAE) was 7 (2.2). For the same compound, the Atrial fibrillation (grade ≥3 TEAE) was 6 (1.9), the Blood pressure increased (grade ≥3 TEAE) was 4 (1.2) and the COVID-19 (grade ≥3 TEAE) was 22 (6.8). For the same compound, the COVID-19 pneumonia (grade ≥3 TEAE) was 23 (7.1), the Neutrophil count decreased (grade ≥3 TEAE) was 17 (5.2) and the Pneumonia (grade ≥3 TEAE) was 19 (5.9). The Syncope (grade ≥3 TEAE) was 9 (2.8), the Thrombocytopenia (grade ≥3 TEAE) was 9 (2.8) and the “AEs leading to dose reduction” value (human, in vivo) was 40 (12.3). The Bronchopulmonary aspergillosis (human, in vivo) was 2 (0.6), the “COVID-19 TEAE Grade 3 or higher” value (human, in vivo) was 40 (12.3) n (%) and the “Fungal abscess central nervous system” value (human, in vivo) was 1 (0.3). It also gave a Herpes ophthalmic (human, in vivo) of 0, an Ophthalmic herpes zoster (human, in vivo) of 0 and an Osteomyelitis fungal (human, in vivo) of 0. The Pneumonia fungal (human, in vivo) was 2 (0.6), the Pneumonia legionella (human, in vivo) was 0 and the Pulmonary tuberculosis (human, in vivo) was 0. The “AEs leading to dose interruption” value (in vivo) was 162 (50.0), the “AEs leading to treatment discontinuation” value (in vivo) was 50 (15.4) and the “Deaths due to cardiac events” value (in vivo) was “no patient receiving zanubrutinib died due to a cardiac disorder AE”. For the same compound, the “Grade ≥3 TEAE” value (in vivo) was 218 (67.3), the “Serious AEs” value (in vivo) was 136 (42.0) and the Atrial fibrillation [3] was 0. It also gave a Cardiac arrest [3] of 0, a Cardiac failure [3] of 0 and a Cardiac failure acute [3] of 0. It also gave a Congestive cardiomyopathy [3] of 0, a Myocardial infarction [3] of 0 and a Palpitations [3] of 0. For the same compound, the Ventricular extrasystoles [3] was 1 (0.3), the Ventricular fibrillation [3] was 0 and the Pneumocystis jirovecii pneumonia (opportunistic infection AESI) was 1 (0.3). For the same compound, the Pneumonia cryptococcal (opportunistic infection AESI) was 1 (0.3).
